Laboratory results taken from patent US20100184683A1, “ANTIBACTERIAL AND ANTIFUNGAL PEPTIDES” (C3 JIAN, INC., priority 2009, published 2010).
Converted amounts (≈) assume the structure as drawn. Read-outs that look alike come from different tables or passages of the source. Peptide text beside a SMILES is read from it.

Assays:
C. albicans = assay type: cell-based, Candida albicans
Method: (§1) In certain embodiments the MIC assays are performed as described herein in the Examples. For each organism, the media and growth conditions utilized is detailed in Table 8.
(§2) In certain embodiments the MIC assays are performed as follows: For each organism, the media and growth conditions utilized is detailed in Table 8.

MRSA = assay type: cell-based, Methicillin-resistant Staphylococcus aureus
How it was run: (§3)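 Each organism was grown in its own designated medium under its own growth conditions, and the MIC was then recorded.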

P. aeruginosa = assay type: cell-based, Pseudomonas aeruginosa
Method: as §1, §2

T. rubrum = assay type: cell-based, Trichophyton rubrum
How it was run: as §3

P. gingivalis = assay type: cell-based, Porphyromonas gingivalis
How it was run: as §3

S. mutans = assay type: cell-based, Streptococcus mutans
How it was run: as §3

F. nucleatum = assay type: cell-based, Fusobacterium nucleatum
Method: as §1, §2

A. naeslundii = assay type: cell-based, Actinomyces naeslundii
How it was run: as §3

S. epidermidis = assay type: cell-based
How it was run: as §3

E. faecalis = assay type: cell-based, Enterococcus faecalis
Method: as §1, §2

A. niger = assay type: cell-based, Aspergillus niger
How it was run: as §3

B. subtilis = assay type: cell-based, Bacillus subtilis
How it was run: as §3

C. jeikeium = experiment: MIC assay, C. jeikeium; assay type: cell-based, Corynebacterium jeikium; conditions: TSB supplemented with 1% Tween-80, 37° C., aerobic, inoculum 10^6 CFU/ml, 18-24 h or 48 h
Method: as §1, §2

M. furfur = experiment: MIC assay, M. furfur; assay type: cell-based, Malassezia furfur; conditions: ATCC medium 1072, 37° C., aerobic, inoculum 10^5 CFU/ml, 18-24 h or 48 h
Method: as §1, §2

MIC (C. albicans) [µM]	MIC (MRSA) [µM]	MIC (P. aeruginosa) [µM]	MIC (T. rubrum) [µM]	MIC (P. gingivalis) [µM]	MIC (S. mutans) [µM]	MIC (F. nucleatum) [µM]	MIC (A. naeslundii) [µM]	MIC (S. epidermidis) [µM]	MIC (E. faecalis) [µM]	MIC (A. niger) [µM]	Structure (SMILES)	MIC (B. subtilis) [µM]	MIC (C. jeikeium) [µM]	MIC (MRSA; MRSA, BHI supplemented with 2% glucose, 37° C., aerobic, inoculum 10^5 CFU/ml, 18-24 h or 48 h) [µM]	MIC (P. aeruginosa; P. aeruginosa, MH, 37° C., aerobic, inoculum 10^5 CFU/ml, 18-24 h or 48 h) [µM]	MIC (T. rubrum; T. rubrum, Potato Dextrose Agar, 25° C., aerobic, inoculum 10^5 CFU/ml, 18-24 h or 48 h) [µM]	MIC (P. gingivalis; P. gingivalis, Columbia broth, 37° C., anaerobic, inoculum 10^5 CFU/ml, 18-24 h or 48 h) [µM]	MIC (M. furfur) [µM]	MIC (S. mutans; S. mutans, TH supplemented with 1% sucrose, 37° C., anaerobic, inoculum 10^5 CFU/ml, 18-24 h or 48 h) [µM]	MIC (S. epidermidis; S. epidermidis, BHI supplemented with 0.25% glucose, 37° C., aerobic, inoculum 10^5 CFU/ml, 18-24 h or 48 h) [µM]
25 (≈ 62.6 µg/mL)	50 (≈ 125 µg/mL)	50 (≈ 125 µg/mL)	50 (≈ 125 µg/mL)	25 (≈ 62.6 µg/mL)	12.5 (≈ 31.3 µg/mL)	25 (≈ 62.6 µg/mL)	25 (≈ 62.6 µg/mL)	25 (≈ 62.6 µg/mL)	–	–	CC[C@H](C)[C@H](NC(=O)[C@H](C)NC(=O)[C@H](CC(N)=O)NC(=O)[C@@H](NC(=O)[C@H](CC(C)C)NC(=O)[C@H](CCCNC(=N)N)NC(=O)[C@H](Cc1ccc(O)cc1)NC(=O)[C@@H](N)CC(N)=O)C(C)C)C(=O)N[C@@H](Cc1ccccc1)C(=O)N[C@@H](CO)C(=O)N[C@@H](CCCCN)C(=O)N[C@H](C(=O)N[C@@H](Cc1ccccc1)C(=O)N[C@@H](CCCCN)C(=O)N[C@@H](CCCCN)C(=O)N[C@@H](CCCCN)C(=O)N[C@@H](Cc1ccccc1)C(=O)N[C@H](C(=O)N[C@@H](CCCCN)C(=O)N[C@@H](Cc1ccccc1)C(=O)O)[C@@H](C)CC)[C@@H](C)CC [PF-C252] (H-NYRLVNAIFSKIFKKKFIKF-OH; N-terminus and C-terminus assumed)	–	–	–	–	–	–	–	–	–
1.56 (≈ 5.44 µg/mL)	1.56 (≈ 5.44 µg/mL)	–	0.78 (≈ 2.72 µg/mL)	–	–	–	–	0.39 (≈ 1.36 µg/mL)	3.13 (≈ 10.9 µg/mL)	3 (≈ 10.5 µg/mL)	CC[C@H](C)[C@H](NC(=O)[C@H](C)NC(=O)[C@H](CO)NC(=O)[C@H](CC(=O)O)NC(=O)[C@H](Cc1ccc(O)cc1)NC(=O)[C@H](C)NC(=O)[C@@H](NC(=O)[C@H](CC(C)C)NC(=O)[C@H](C)NC(=O)[C@H](CC(C)C)NC(=O)[C@H](CO)NC(=O)CNC(=O)[C@H](Cc1ccccc1)NC(=O)[C@H](CCCNC(=N)N)NC(=O)[C@@H](N)CCSC)C(C)C)C(=O)N[C@@H](CCCCN)C(=O)N[C@@H](Cc1c[nH]cn1)C(=O)N[C@@H](CO)C(=O)N[C@@H](Cc1c[nH]c2ccccc12)C(=O)N1CCC[C@H]1C(=O)N[C@@H](CCCNC(=N)N)C(=O)N1CCC[C@H]1C(=O)N[C@@H](CO)C(=O)N[C@@H](CO)C(=O)N[C@H](C(=O)N[C@@H](CCCNC(=N)N)C(=O)N[C@@H](CCCNC(=N)N)C(=O)N[C@@H](CC(C)C)C(=O)N[C@@H](CCCNC(=N)N)C(=O)N[C@@H](CCSC)C(=O)O)C(C)C [PF-672] (H-MRFGSLALVAYDSAIKHSWPRPSSVRRLRM-OH; N-terminus and C-terminus assumed)	0.78 (≈ 2.72 µg/mL)	–	–	–	–	–	–	–	–
–	–	–	–	–	–	–	–	–	–	–	CC[C@H](C)[C@H](NC(=O)[C@@H](NC(=O)[C@H](CO)NC(=O)CN)C(C)C)C(=O)N[C@@H](CCCCN)C(=O)N[C@@H](CCCCN)C(=O)N[C@@H](CCCNC(=N)N)C(=O)N[C@@H](CCCNC(=N)N)C(=O)N[C@@H](CCCCN)C(=O)N[C@@H](CCCNC(=N)N)C(=O)N[C@@H](CCSC)C(=O)N[C@@H](CO)C(=O)N[C@@H](CCCCN)C(=O)N[C@@H](CCCCN)C(=O)N[C@@H](CCCCN)C(=O)N[C@@H](Cc1c[nH]cn1)C(=O)N[C@@H](CCCNC(=N)N)C(=O)N[C@@H](CCCCN)C(=O)N[C@@H](CCSC)C(=O)N[C@@H](CC(C)C)C(=O)N[C@@H](CCCNC(=N)N)C(=O)N[C@@H](CCCNC(=N)N)C(=O)N[C@H](C(=O)N[C@@H](CCCNC(=N)N)C(=O)N[C@H](C(=O)N[C@@H](CCC(N)=O)C(=O)N[C@@H](CCCNC(=N)N)C(=O)N[C@@H](CCCNC(=N)N)C(=O)N[C@@H](CCCCN)C(=O)N[C@@H](CC(C)C)C(=O)NCC(=O)N[C@@H](CCCCN)C(=O)O)C(C)C)[C@@H](C)O [PF-S028]	12.5 (≈ 50.4 µg/mL)	6.25 (≈ 25.2 µg/mL)	50 (≈ 202 µg/mL)	50 (≈ 202 µg/mL)	50 (≈ 202 µg/mL)	25 (≈ 101 µg/mL)	2.5 (≈ 10.1 µg/mL)	50 (≈ 202 µg/mL)	25 (≈ 101 µg/mL)
